Measured values reported in article PMC9228270, “Design, Synthesis, In Silico Studies and Inhibitory Activity towards Bcr-Abl, BTK and FLT3-ITD of New 2,6,9-Trisubstituted Purine Derivatives as Potential Agents for the Treatment of Leukaemia” (Pharmaceutics, 2022).

What was measured:
FLT3-ITD [1] = target: T1, FLT3-ITD (Homo sapiens, UniProt P36888); design: method as in PMID 29672049; conditions: cited from earlier work
T1 sequence (P36888 27-993): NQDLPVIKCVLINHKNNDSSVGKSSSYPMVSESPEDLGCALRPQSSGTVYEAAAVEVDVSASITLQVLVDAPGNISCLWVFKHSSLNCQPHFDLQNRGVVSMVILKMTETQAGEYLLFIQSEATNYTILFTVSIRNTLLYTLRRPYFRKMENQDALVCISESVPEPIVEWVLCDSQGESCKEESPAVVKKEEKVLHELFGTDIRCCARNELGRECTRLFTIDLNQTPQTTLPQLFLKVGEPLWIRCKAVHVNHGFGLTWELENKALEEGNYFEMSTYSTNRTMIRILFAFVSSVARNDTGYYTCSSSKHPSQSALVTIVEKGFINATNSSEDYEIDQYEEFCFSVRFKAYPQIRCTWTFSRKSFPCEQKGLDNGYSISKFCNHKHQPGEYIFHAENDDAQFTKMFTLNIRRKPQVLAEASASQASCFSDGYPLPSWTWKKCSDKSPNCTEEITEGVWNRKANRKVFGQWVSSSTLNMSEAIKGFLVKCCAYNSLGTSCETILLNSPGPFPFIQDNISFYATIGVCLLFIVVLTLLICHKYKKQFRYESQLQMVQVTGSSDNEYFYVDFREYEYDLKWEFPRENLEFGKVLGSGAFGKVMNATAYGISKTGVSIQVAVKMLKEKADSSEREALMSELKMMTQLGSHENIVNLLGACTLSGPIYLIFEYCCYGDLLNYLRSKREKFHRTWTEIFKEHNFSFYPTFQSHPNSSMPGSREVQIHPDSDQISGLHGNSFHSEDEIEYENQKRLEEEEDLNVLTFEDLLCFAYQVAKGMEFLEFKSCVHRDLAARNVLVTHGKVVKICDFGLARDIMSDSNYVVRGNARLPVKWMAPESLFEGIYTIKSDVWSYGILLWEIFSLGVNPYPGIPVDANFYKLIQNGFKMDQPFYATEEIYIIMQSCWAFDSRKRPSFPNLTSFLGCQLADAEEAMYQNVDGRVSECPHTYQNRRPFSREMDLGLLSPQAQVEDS

Bcr-Abl1 = Bcr-Abl1 (Homo sapiens, UniProt P00519); assay: Recombinant kinase radioassay, Abl; type: biochemical; conditions: ATP 1 µM, at least three independent experiments, range 0.01–100 µM
Sequence of Bcr-Abl1 (P00519 27-1130): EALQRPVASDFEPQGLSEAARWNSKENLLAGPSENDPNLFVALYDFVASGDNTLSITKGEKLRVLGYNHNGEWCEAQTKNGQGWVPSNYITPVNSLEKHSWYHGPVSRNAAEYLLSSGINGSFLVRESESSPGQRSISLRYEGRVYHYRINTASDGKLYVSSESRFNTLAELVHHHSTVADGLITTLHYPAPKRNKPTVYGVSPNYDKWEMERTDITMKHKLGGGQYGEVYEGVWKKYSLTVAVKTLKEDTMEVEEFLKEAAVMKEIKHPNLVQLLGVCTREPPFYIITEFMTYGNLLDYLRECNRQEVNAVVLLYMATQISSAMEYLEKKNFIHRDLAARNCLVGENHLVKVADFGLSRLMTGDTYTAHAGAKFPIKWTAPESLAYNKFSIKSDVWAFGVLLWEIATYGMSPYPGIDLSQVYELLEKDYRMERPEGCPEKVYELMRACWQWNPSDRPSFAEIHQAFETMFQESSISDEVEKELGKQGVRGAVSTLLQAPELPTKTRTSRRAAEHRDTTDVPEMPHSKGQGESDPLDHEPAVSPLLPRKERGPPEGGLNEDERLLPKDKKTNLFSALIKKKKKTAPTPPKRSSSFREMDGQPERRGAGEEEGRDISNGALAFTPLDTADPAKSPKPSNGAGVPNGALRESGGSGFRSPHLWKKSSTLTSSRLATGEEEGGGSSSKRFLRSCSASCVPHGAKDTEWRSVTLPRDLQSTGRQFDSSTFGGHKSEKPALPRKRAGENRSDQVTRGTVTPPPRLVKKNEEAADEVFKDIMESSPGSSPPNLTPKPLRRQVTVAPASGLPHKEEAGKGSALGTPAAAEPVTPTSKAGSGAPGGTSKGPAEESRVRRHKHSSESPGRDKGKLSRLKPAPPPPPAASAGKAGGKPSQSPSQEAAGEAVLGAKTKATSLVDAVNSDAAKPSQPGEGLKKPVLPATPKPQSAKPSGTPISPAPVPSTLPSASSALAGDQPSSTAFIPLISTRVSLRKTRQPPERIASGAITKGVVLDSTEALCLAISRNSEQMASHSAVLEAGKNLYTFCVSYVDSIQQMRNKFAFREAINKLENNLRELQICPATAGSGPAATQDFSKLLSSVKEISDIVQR
Description: (§1) Recombinant kinase inhibition was measured using standard radioassay. Bcr-Abl1 and Cdk-2/cyclin E kinases were produced in-house, FLT3-ITD and BTK were purchased from ProQinase. The kinases were assayed with suitable substrates (500 µM peptide […] for Abl, 1 mg/mL histone H1 for Cdk-2, 100 µM poly (Glu:Tyr; 4:1)) in the presence of ATP (1 µM for Bcr-Abl, 15 µM for Cdk-2 and BTK), 0.05 µCi [γ-^33P]ATP and the test compound in reaction buffer (60 mM HEPES-NaOH, pH 7.5, 3 mM MgCl2, 3 mM MnCl2, 3 µM Na orthovanadate, 1.2 mM DTT, 2.5 µg/50 µL PEG20.000). The reactions were stopped by adding 3% aq. H3PO4. P-81 phosphocellulose (Whatman) was used to separate phosphorylated substrates. Kinase activity was quantified using a FLA-7000 digital image analyser.

BTK = target: T2, BTK (Homo sapiens, UniProt Q06187); assay: Recombinant kinase radioassay, BTK; type: biochemical; conditions: recombinant kinase, radioassay, ATP 15 µM; at least three independent experiments, range 0.01–100 µM; read-out: IC50 BTK
T2 construct: purchased ProQinase
T2 sequence (Q06187 whole entry): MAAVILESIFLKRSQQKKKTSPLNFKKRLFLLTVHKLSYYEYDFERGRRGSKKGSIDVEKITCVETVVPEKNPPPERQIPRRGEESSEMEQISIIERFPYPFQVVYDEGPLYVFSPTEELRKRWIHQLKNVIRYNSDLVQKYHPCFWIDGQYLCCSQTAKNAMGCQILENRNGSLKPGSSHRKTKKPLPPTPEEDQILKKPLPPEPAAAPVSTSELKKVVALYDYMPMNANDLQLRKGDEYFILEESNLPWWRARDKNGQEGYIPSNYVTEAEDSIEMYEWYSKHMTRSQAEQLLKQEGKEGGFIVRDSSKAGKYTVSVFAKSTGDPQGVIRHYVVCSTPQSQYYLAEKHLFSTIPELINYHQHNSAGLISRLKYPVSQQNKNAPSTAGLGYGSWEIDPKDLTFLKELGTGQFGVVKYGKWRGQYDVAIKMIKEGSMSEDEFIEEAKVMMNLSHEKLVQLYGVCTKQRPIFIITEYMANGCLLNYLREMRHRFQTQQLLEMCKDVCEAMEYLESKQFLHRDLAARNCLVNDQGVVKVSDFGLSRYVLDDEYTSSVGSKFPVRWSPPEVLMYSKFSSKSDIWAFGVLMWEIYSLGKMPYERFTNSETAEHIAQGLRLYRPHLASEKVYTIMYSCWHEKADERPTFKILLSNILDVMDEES
Description: as §1

FLT3-ITD [2] = target: T3, FLT3-ITD (Homo sapiens, UniProt P36888, ITD); assay: Recombinant kinase radioassay, FLT3-ITD; type: biochemical; conditions: recombinant kinase, radioassay; at least three independent experiments, range 0.01–100 µM; read-out: IC50 FLT3-ITD
T3 sequence (P36888 27-993): T1 sequence (P36888 27-993)
Description: as §1

Cdk-2/cyclin E = target: T4, Cdk-2/cyclin E (Homo sapiens, UniProt P24941); assay: Recombinant kinase radioassay, Cdk-2/cyclin E; type: biochemical; conditions: ATP 15 µM, at least three independent experiments, range 0.01–100 µM
T4 construct: made in house
Description: as §1

K562 = assay: Cytotoxicity assay (resazurin), K562; type: cell-based; conditions: Homo sapiens, 72 h, three independent experiments, range 0.1 to 25 µM
Description: (§2) Cytotoxicity assays for the purines were quantified using the resazurin method, a dye to measure redox reactions occurring in the mitochondria of live cells. The cells were treated by tested compounds (in triplicate, six different doses) for 72 h.

HL-60 = assay: Cytotoxicity assay (resazurin), HL-60; type: cell-based; conditions: Homo sapiens, 72 h, three independent experiments, range 0.1 to 25 µM
Description: as §2

MV4-11 = assay: Cytotoxicity assay (resazurin), MV4-11; type: cell-based; conditions: Homo sapiens, 72 h, three independent experiments, range 0.1 to 25 µM
Description: as §2

Ramos = assay: Cytotoxicity assay (resazurin), Ramos; type: cell-based; conditions: Homo sapiens, 72 h, three independent experiments, range 0.1 to 25 µM
Description: as §2

CEM = assay: Cytotoxicity assay (resazurin), CEM; type: cell-based; conditions: Homo sapiens, CCRF-CEM, 72 h, three independent experiments, range 0.1 to 25 µM
Description: as §2

IC50 (Bcr-Abl1) [nM] | IC50 (BTK) [nM] | IC50 (FLT3-ITD [2]) [nM] | IC50 (Cdk-2/cyclin E) [µM] | melting point [°C] | Compound | IC50 (FLT3-ITD [1]) [nM] | GI50 (K562) [µM] | GI50 (HL-60) [nM] | GI50 (MV4-11) [nM] | GI50 (Ramos) [µM] | GI50 (CEM) [µM]
 |  |  |  |  | NC1CCC(Nc2nc(Nc3ccc(CN4CCOCC4)cc3)c3ncn(C4CCCC4)c3n2)CC1 (centres unmarked) [II] | 2 |  |  |  |  | 
200 ± 50 | 880 ± 190 | 1030 | 26.6 ± 3.37 | 149 to 150 | CN1CCN(c2ccc(Nc3nc(Nc4ccc(Cl)c(F)c4)c4ncn(CC5CC5)c4n3)cc2)CC1 [Compound 4l, N^6-(4-Chloro-3-fluorophenyl)-9-(cyclopropylmethyl)-N^2-(4-(4-methylpiperazin-1-yl)phenyl)-9H-purine-2,6-diamine] |  | 3.45 ± 1.61 | 3220 ± 740 | 2560 ± 640 | 11.2 ± 2.64 | 15.4 ± 0.55
> 100000 | 970 ± 220 | > 20000 | 25.6 ± 3.27 | 181.2 to 183.6 | CCCCCCCCn1cnc2c(Nc3cccc(F)c3)nc(Nc3ccc(N4CCN(C)CC4)cc3)nc21 [Compound 5k, N^6-(3-Fluorophenyl)-N^2-(4-(4-methylpiperazin-1-yl)phenyl)-9-octyl-9H-purine-2,6-diamine] |  | 10 ± 6.31 | 2160 ± 480 | 12400 ± 3930 | 15.7 ± 0.37 | 21.3 ± 0.31
1210 ± 110 | 6010 ± 720 | 1950 | 31.4 ± 3.18 | 164 to 165 | CN1CCN(C(=O)c2ccc(Nc3nc(Nc4ccccc4)c4ncn(CC5CC5)c4n3)cc2)CC1 [Compound 8a, (4-((9-(Cyclopropylmethyl)-6-(phenylamino)-9H-purin-2-yl)amino)phenyl)(4-methylpiperazin-1-yl)methanone] |  | 8.91 ± 1.64 | 6640 ± 1420 | 1240 ± 210 | 16.6 ± 0.67 | > 25
940 ± 220 | 2730 ± 170 | 1810 | 14.2 ± 1.24 | 142 to 143 | CN1CCN(C(=O)c2ccc(Nc3nc(Nc4ccc(F)c(F)c4)c4ncn(CC5CC5)c4n3)cc2)CC1 [Compound 8c, (4-((9-(Cyclopropylmethyl)-6-((3,4-difluorophenyl)amino)-9H-purin-2-yl)amino)phenyl)(4-methylpiperazin-1-yl)methanone] |  | 6.07 ± 0.08 | 2390 ± 890 | 1520 ± 310 | 14.69 ± 0.02 | 20.7 ± 4.07
